From PMC6348381, “Discovery of an MLLT1/3 YEATS Domain Chemical Probe” (Angewandte Chemie (International Ed. in English), 2018) come the findings set out here.

Each structure is given as a SMILES string.

Assay [1] addresses T1, CBP (Homo sapiens, UniProt Q92793).
T1 construct: made in house
Nature of the assay: AlphaScreen selectivity screen, CBP. The class given is binding. The text has this:
(§1) IC50 (µM) IC50 (µM) IC50 (µM) IC50 (µM) (µM) (µM) (µM)
(§2) Supplementary Table 1. […]

Assay [2] addresses T2, MLLT3 (Homo sapiens, UniProt P42568).
T2 construct: in full length MLLT3 N-terminal NanoLuc, Histone; host or cells: HEK293
T2 sequence (P42568 1-568): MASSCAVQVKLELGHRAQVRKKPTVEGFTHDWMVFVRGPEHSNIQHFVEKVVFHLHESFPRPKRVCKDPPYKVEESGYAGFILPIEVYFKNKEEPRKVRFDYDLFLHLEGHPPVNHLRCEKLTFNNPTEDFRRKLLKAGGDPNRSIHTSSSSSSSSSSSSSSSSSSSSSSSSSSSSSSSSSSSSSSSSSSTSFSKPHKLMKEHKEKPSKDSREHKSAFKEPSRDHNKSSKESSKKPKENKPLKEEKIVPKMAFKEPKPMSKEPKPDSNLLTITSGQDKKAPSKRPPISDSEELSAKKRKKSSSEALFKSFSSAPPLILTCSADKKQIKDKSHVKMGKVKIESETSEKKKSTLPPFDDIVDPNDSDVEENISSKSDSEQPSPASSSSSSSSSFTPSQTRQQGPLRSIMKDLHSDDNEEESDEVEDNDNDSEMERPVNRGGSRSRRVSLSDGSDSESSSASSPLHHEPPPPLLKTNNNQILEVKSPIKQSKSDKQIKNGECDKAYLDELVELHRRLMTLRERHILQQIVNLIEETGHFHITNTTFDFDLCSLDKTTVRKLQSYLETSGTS
Nature of the assay: NanoBRET assay, full-length MLLT3-NanoLuc / histone H3.3-HaloTag in HEK293 cells. The class given is cell-based. As to conditions: 24 h. The method, then:
II.V NanoLuciferase Bioluminescent Resonance Energy Transfer (NanoBRET) Assay[2]
HEK293 cells ([…]) were plated in each well of a 6-well plate after 6 h cells were co-transfected with Histone H3.3-HaloTag (NM_002107) and a NanoLuciferase fusion of MLLT1 or MLLT3 (WT sequences from Promega HaloTag® human ORF in pFN21A) at a 1:500 and 1:10 (NanoLuc® to HaloTag®) ratio respectively with FuGENE HD transfection regent. Sixteen hours post-transfection, cells were collected and exchanged into media containing phenol red-free DMEM and 4% FBS in the absence (control sample) or the presence (experimental sample) of 100 nM NanoBRET 618 fluorescent ligand (Promega).
Cell density was adjusted to 2 x 10^5 cells/mL and then seeded 100 µL/well in a white 96-well plate (Corning Costar #3917). Compounds were then added directly to media (in the presence of SAHA 2.5 µM) at final concentrations 0.01-30 μM or an equivalent amount of DMSO as a vehicle control, and the plates were incubated for 24 h at 37 °C in the presence […]
NanoBRET Nano-Glo substrate (Promega) was added to both control and experimental samples at a final concentration of 10 µM. Readings were performed within 5 minutes using a ClarioSTAR (BMG labtech) equipped with LP 480 and 610 nm filters. A corrected BRET ratio was calculated and is defined as the ratio of the emission at 610 nm/[…] for experimental samples minus the emission at 6 10 nm/640 nm for control samples (not incubated with NanoBRET fluorescent ligand). BRET ratios are expressed as milliBRET units (mBU), where 1 mBU corresponds to the corrected BRET ratio multiplied by 1000.
3.3 C-terminal HaloTag in HEK293 cells. Treatment with SAHA (2.5 µM) alone increases MLLT3- […]
dependent manner. Mean±SD of BRET ratio (mBU), n=4 technical replicates.
(also on this page, place not known: 5) -well H3.3 -HaloTag pFN21A ) ( NanoLuc® H aloTag®) post -transfection, red -free Nano -Glo 10 5 6 10 6 10 l igand). cells . […]

The target in assay [3] is TAF1 (Homo sapiens, UniProt P21675). The experiment in a line: AlphaScreen selectivity screen, TAF1. The assay is classed as binding. Background: Alpha assays give light when donor and acceptor beads are brought close together.
Sequence of TAF1 (P21675 1522-1656): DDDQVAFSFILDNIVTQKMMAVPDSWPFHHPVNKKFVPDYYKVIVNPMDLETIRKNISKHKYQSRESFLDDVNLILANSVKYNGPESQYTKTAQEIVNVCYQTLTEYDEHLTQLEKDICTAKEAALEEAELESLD
Assay [4] concerns the target CECR2 (Homo sapiens, UniProt Q9BXF3). Nature of the assay: AlphaScreen selectivity screen, CECR2. The assay is classed as binding.
From the text: as §1, §2

For assay [5], the target named is T3, MLLT3 (Homo sapiens, UniProt P42568).
T3 construct: made in house; host or cells: E. coli Rosetta
The experiment in a line: AlphaScreen assay, MLLT3. As to conditions: Figure 1. The class given is binding. The procedure:
Figure 1 Identified hit MLLT1/3 inhibitor compound 1.
II.IV Protein Expression and Purification
Human bromodomains were cloned, expressed and purified as previously described. The cloning, expression and purification of human YEATS domains are described as follows; Sequences for the wild type YEATS domains of MLLT1, MLLT3, GAS41 and YEATS2 were cloned into expression vectors (Table S1). E. coli Rosetta cells were grown in TB medium at 37°C. Overexpression was induced after five hours by addition of IPTG to a final concentration of 0.4 mM and cells were incubated at 17°C overnight. Cells were harvested by centrifugation and the cell pellet was resuspended in cold binding buffer (50 mM Tris at pH 7.5, 500 mM NaCl, 20 mM imidazole, 2 mM DTT) on a magnetic stirring plate at 4°C. The suspension was lysed using an Avestin EmulsiFlex-C5 homogeniser (1 pass without pressure, four passes with pressure between 1000-1500 bar). The lysate was clarified via centrifugation at 16,000 rpm at 4°C for 1 hour (JLA-16 rotor in Beckmann Coulter Avanti J-26S XP centrifuge). The supernatant was loaded onto a standard NiNTA column (HisTrap FF, 5 ml, GE Healthcare Lifesciences) on an ÄKTAxpress system (GE). […] Protein concentration was quantified via extinction at […] (NanoDrop ND-1000 Spectrophotometer) and protein identity was verified via SDS-PAGE and LC/MS. […]

For assay [6], the target named is T4, MLLT1 YD (Homo sapiens, UniProt Q03111).
T4 construct: made in house; host or cells: E. coli Rosetta
T4 sequence (Q03111 1-138 limits assumed): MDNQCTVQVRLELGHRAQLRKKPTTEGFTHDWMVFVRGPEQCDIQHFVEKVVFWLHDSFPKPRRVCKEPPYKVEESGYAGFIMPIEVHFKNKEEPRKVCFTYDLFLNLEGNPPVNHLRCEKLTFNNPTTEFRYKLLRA
Nature of the assay: Isothermal titration calorimetry (ITC), MLLT1 YD. The class given is binding. (Isothermal titration calorimetry measures the heat released or taken up as one component is titrated into another.)
Method: Experiments were carried out on a Nano -ITC Standard Volume Instrument (TA Instruments).
All experiments were carried out at 25 °C in 20 mM HEPES pH 7.5, 150 mM NaCl, 0.5 mM TCEP and 5% glycerol. Protein soluti ons were buffer exchanged by gel filtration. The titrations were conducted using an initial injection of 2 μL followed by 32 injections of 8 μL.
Background dilution heat was subtracted from each experiment. Thermodynamic parameters
changes in free energy, enthalpy and entropy respectively. Independent single site binding models were employed in data analysis.

Sequence of CECR2 (Q9BXF3 434-538 limits assumed): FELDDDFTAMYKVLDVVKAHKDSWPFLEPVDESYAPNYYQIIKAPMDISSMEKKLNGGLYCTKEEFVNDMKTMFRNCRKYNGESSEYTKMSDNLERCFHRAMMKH
T1 sequence (Q92793 1085-1192 limits assumed): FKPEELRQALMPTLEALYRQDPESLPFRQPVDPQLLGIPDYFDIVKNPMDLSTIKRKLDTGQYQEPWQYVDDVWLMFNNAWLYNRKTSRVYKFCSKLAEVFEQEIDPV

Consider `C[C@H]1CCCN1Cc1nc2cc(NC(=O)c3ccc4c(cnn4C)c3)ccc2[nH]1` [Compound 92], for which the “inhibition of CBP” value in assay [1] (10 μM using AS) was “no inhibition”. Moreover, the IC50 (usually the midpoint of a concentration-inhibition curve) in assay [1] (AlphaScreen selectivity screen) was greater than 10 µM; in assay [2] (in the presence of 2.5 μM SAHA), 0.4 ± 0.08 µM; in assay [3] (AlphaScreen selectivity screen) it was greater than 10 µM; in assay [4] (AlphaScreen selectivity screen, read-out: CECR2 (2) IC50), greater than 10 µM. Besides, the “MLLT3-Histone 3.3 interaction (mBU)” value in assay [2] (representative assay) is on record as “can reduce this interaction”. Moreover, the “inhibition of TAF1” value in assay [3] (10 μM using AS) is recorded as “no inhibition”. Further, the “inhibition of CECR2” value in assay [4] (10 μM using AS) is “no inhibition”.
Regarding `COC(=O)c1ccc(C(=O)Nc2ccc3[nH]c(CN4CCCCC4)nc3c2)cc1` [Compound 1], the IC50 in assay [5] came to 1 µM. For the same molecule, binding in assay [6] was characterised by a dissociation constant (Kd) of 1 µM.
